This experiment has as its system frozen-thawed rooster sperm binding to an extract of hen's egg membrane. The experiment can be described thus: In vitro microwell sperm-egg binding assay, sperm treated with peptides (fluorescent plate reader). It is filed as cell-based. To be noted: for Biological activity / sperm binding capability (in words) / Concentration at which binding activity was induced (active at) / Activity relative to SEQ ID NO: 1 / Peptide concentration which, after tenfold dilution of the sperm suspension, provided maximum binding: frozen-thawed rooster sperm; for Peptide concentration which, after tenfold dilution of the sperm suspension, provided maximum binding: hen's egg membrane extract in microwell plate. The text has this: The biological activity of the native UPSEBP prepared from rooster sperm and synthetic amino acid sequences were compared in an in vitro assay of sperm binding described in copending U.S. patent application Ser. No. 08/234,448. This microwell assay used plates in which the wells were coated with a binding substrate prepared from an extract of hen's egg vitelline membrane. The thawed rooster sperm, known to be reduced in UPSEBP, were washed once with isotonic salt solutions, resuspended at 50×10^5/0.1 ml, and incubated 30 minutes with 0.02-50 μg/0.5 ml native UPSEBP or synthetic peptide. Then 0.1 ml of a suspension of about 5×10^6 sperm were placed into each of triplicate wells in a microwell plate. After 2 hours of incubation at 37° C., unbound sperm were washed away and bound sperm were stained and counted using a microscope. The number of sperm bound was considered to be a measure of biological activity because there is a high correlation between the number of rooster sperm bound in vitro to such an egg extract and the fertilizing potential of sperm in that sample, as quantified by the percentage of eggs hatching young chicks after artificial insemination. Table No. 1 presents the amino acid sequence of synthetic peptides and the resulting binding capacity as compared to native UPSEBP (full sequence not provided). Initial evaluations of the capabilities of SEQ ID NO:1 through SEQ ID NO:11, native UPSEBP and rat SGP-1 to enhance sperm binding to an egg-membrane substrate were based on visual counts of bound sperm and conducted over a number of months. The binding data for SEQ ID NO:1 through SEQ ID NO:12 and native UPSEBP and rat SGP-1 presented in Table No. 1 were obtained as two data sets using a recent version of that sperm-egg binding assay in which the bound sperm were stained with a fluorescent dye binding to DNA and quantified using a fluorescent microwell-plate reader, by techniques known to those skilled in the art. The amino acid sequences of portions of human prosaposin (SEQ ID NO:15) and mouse prosaposin (SEQ ID NO:16) also are as shown. [table]

“Also recorded” adds a separate entry of the source. Bridges are numbered along the chain shown (N, C = ends). Where no end group is shown, it is not given here. [ ]: non-standard residue; d: D form.

In the case of “SEQ ID NO:12 hairpin form: SEQ ID NO:12 modified by induced oxidation of the SH-groups to a closed loop (CQSLQEYLAEQNQRQLESNKIPEVDLARVVAPFMSNIPLLLYPQDRPRSQPQPKANEDVC; disulfide 1-60 (inferred))”, the “Activity relative to the linear form of SEQ ID NO:12” value came out at 5 times, the “Potency relative to SEQ ID NO:1” value was 425 times, the “Biological activity / sperm binding capability (in words)” value is listed as “enhanced biological activity” and the “Concentration at which binding activity was induced (active at)” value was found to be 0.4 pM.
As to “SEQ ID NO:10: Table 1 sequence: L-Leu-Tyr-Pro-Gln-Asp-Arg-Thr-Arg-Ser-Gln-Pro-Gln-Pro-Lys-Ala-Asn (LYPQDRTRSQPQPKAN; L-amino acids; SITE 1 L-isomer)”, the “Activity relative to SEQ ID NO: 1” value stood at 0.94; the “Biological activity / sperm binding capability (in words)” value was “greater than that of SEQ ID NO:11; also recorded: reduced activity relative to SEQ ID NO:1”; the “Peptide concentration which, after tenfold dilution of the sperm suspension, provided maximum binding” value amounted to 8.8 nmol.
In the same order, the values of “SEQ ID NO:4: Table 1 sequence: Gln-Pro-Gln-Pro-Lys-Ala-Asn-Glu-Asp-Val-Cys-Gln-Asp-Cys-Met (QPQPKANEDVCQDCM; Addition of amino acids distal to the terminal asparagine of SEQ ID NO 3 does not substantially change biological activity.)” are 0.002, “did not substantially change biological activity” and 85 nmol.
With “SEQ ID NO:12 linear form: SEQ ID NO:12 as synthesized, 60 amino acid molecule (CQSLQEYLAEQNQRQLESNKIPEVDLARVVAPFMSNIPLLLYPQDRPRSQPQPKANEDVC; Synthetic peptide embodying the complete intervening sequence between rat saposin A and saposin B.)”, the “Potency relative to SEQ ID NO:9” value is listed as “approximately 90 times”, the “Biological activity / sperm binding capability (in words)” value is “substantial biological activity” and the “Concentration at which binding activity was induced (active at)” value amounted to 2 pM.
Consider “SEQ ID NO:6: Table 1 sequence: Tyr-Pro-Gln-Asp-Arg-Thr-Arg-Ser-Gln-Pro-Gln-Cys (YPQDRTRSQPQC; Replacement of the terminal proline of SEQ ID NO 2 with a cysteine does not substantially change biological activity.)”, for which the “Activity relative to SEQ ID NO: 1” value was 0.0005; the “Biological activity / sperm binding capability (in words)” value is listed as “minimal change in biological activity relative to SEQ ID NO:2”; the “Peptide concentration which, after tenfold dilution of the sperm suspension, provided maximum binding” value was 370 nmol.
The like results for “SEQ ID NO:7: Table 1 sequence: Acetyl-Tyr-Pro-Gln-Asp-Arg-Thr-Arg-Ser-Gln-Pro-Gln-Pro (Ac-YPQDRTRSQPQP)” were, in that order, 0.003, “did not suppress biological activity relative to SEQ ID NO:2” and 50 nmol.
In the same order, the values of “SEQ ID NO:3: Table 1 sequence: Gln-Pro-Gln-Pro-Lys-Ala-Asn (QPQPKAN; Portion of SEQ ID NO 1 essentially devoid of binding capability.)” are 0.0001, “essentially devoid of binding capability” and 2,125 nanomoles.
In the case of “CQSLQEYLAEQNQRQLESNKIPEVDLARVVAPFMSNIPLLLYPQDRPRSQPQPKANEDVC (cysteine pairing not given here) [SEQ ID NO:12]”, the “Biological activity / sperm binding capability (in words)” value was “conferred substantial binding activity especially when oxidized to form a molecule with a hairpin form”.
In the case of “SEQ ID NO:11: Table 1 sequence: D-Leu-Tyr-Pro-Gln-Asp-Arg-Thr-Arg-Ser-Gln-Pro-Gln-Pro-Lys-Ala-Asn ([dL]YPQDRTRSQPQPKAN)”, the “Activity relative to SEQ ID NO: 1” value was found to be 0.001; the “Biological activity / sperm binding capability (in words)” value was “reduced activity relative to SEQ ID NO:1”; the “Peptide concentration which, after tenfold dilution of the sperm suspension, provided maximum binding” value was found to be 25 nmol.
For the substance “SEQ ID NO:5: Table 1 sequence: Pro-Gln-Pro-Lys-Ala-Asn-Glu-Asp-Val-Cys-Gln-Asp-Cys-Met-Lys-Leu-Val-Thr-Asp (PQPKANEDVCQDCMKLVTD; Addition of amino acids distal to the terminal asparagine of SEQ ID NO 3 does not substantially change biological activity.)”, the “Activity relative to SEQ ID NO: 1” value amounted to 0.0003 and the “Peptide concentration which, after tenfold dilution of the sperm suspension, provided maximum binding” value came out at 510 nmol.
On to “SEQ ID NO:2: Table 1 sequence: Tyr-Pro-Gln-Asp-Arg-Thr-Arg-Ser-Gln-Pro-Gln-Pro (YPQDRTRSQPQP; Portion of SEQ ID NO 1 showing lower binding capability.)”, for which the “Activity relative to SEQ ID NO: 1” value is on record as 0.0006; the “Biological activity / sperm binding capability (in words)” value is listed as “lower binding capability”; the “Peptide concentration which, after tenfold dilution of the sperm suspension, provided maximum binding” value was found to be 300 nmol.
Regarding YPQDRPRSQPQPKAN [SEQ ID NO:9], the “Activity relative to SEQ ID NO: 1” value is given as 0.94; the “Biological activity / sperm binding capability (in words)” value is recorded as “substantial binding activity; also recorded: very high biological activity, approximately equal to that of SEQ ID NO:1”; the “Peptide concentration which, after tenfold dilution of the sperm suspension, provided maximum binding” value is 0.18 nmol.
Take “SEQ ID NO:8: Table 1 sequence: Phe-Phe-Tyr-Pro-Gln-Asp-Arg-Thr-Arg-Ser-Gln-Pro-Gln-Pro (FFYPQDRTRSQPQP; Addition of a phenylalanine group to the NH2 end of SEQ ID NO 2 does not substantially suppress biological activity.)”: the “Activity relative to SEQ ID NO: 1” value is on record as 0.002; the “Biological activity / sperm binding capability (in words)” value is recorded as “did not suppress biological activity relative to SEQ ID NO:2”; the “Peptide concentration which, after tenfold dilution of the sperm suspension, provided maximum binding” value came out at 100 nmol.
As to YPQDRTRSQPQPKAN [SEQ ID NO:1], the “Activity relative to SEQ ID NO: 1” value came out at 1; the “Biological activity / sperm binding capability (in words)” value was “greater biological activity than SEQ ID NO:2 through SEQ ID NO:8”; the “Peptide concentration which, after tenfold dilution of the sperm suspension, provided maximum binding” value was 3.17 nmol. For the same substance, the “Biological activity / sperm binding capability (in words)” value (listed as SEQ NO:1) is “substantial binding activity”. Also, the “Number of sperm bound to the egg membrane substrate” value (nanomolar concentrations of peptide) is “approximately twice as many sperm bound”.
